Assay results as given in patent US8101766B2, “Crystalline form of a biphenyl compound” (Theravance, Inc., priority 2004, dated 2012).
pKi: −log10 of the molar value.

Tests used:
[1] = test system: MCh-induced bronchoconstriction; assay: Bronchoprotection in guinea pig model of acetylcholine-induced bronchoconstriction; format: in vivo; conditions: inhalation
Procedure: Duration of Bronchoprotection in Guinea Pig Models of Acetylcholine-Induced or Histamine-Induced Bronchoconstriction
To isolate muscarinic antagonist activity in the acetylcholine-induced bronchoconstriction model, the animals were administered propanolol, a compound that blocks β receptor activity, prior to the administration of acetylcholine. Duration of bronchoprotection in the histamine-induced bronchoconstriction model reflects β2 adrenergic receptor agonist activity.
Groups of 6 male guinea pigs (Duncan-Hartley (HsdPoc:DH) Harlan, Madison, Wis.) weighing between 250 and 350 g were individually identified by cage cards. Throughout the study, animals were allowed access to food and water ad libitum.
Test compounds were administered via inhalation over 10 minutes in a whole-body exposure dosing chamber (R&S Molds, San Carlos, Calif.). […] This value was measured gravimetrically by comparing pre- and post-nebulization weights of the filled nebulizer.
The bronchoprotective effects of test compounds administered via inhalation were evaluated using whole body plethysmography at 1.5, 24, 48 and 72 hours post-dose. […]
Once it was determined that baseline values were within the range of 0.3-0.9 mL/cm H2O for compliance and within the range of 0.1-0.199 cm H2O/mL per second for resistance, the pulmonary evaluation was initiated. […]

[2] = biological target: T1, human M3 muscarinic receptor (Homo sapiens, UniProt P20309); assay: Radioligand binding assay for muscarinic receptors (hM3); conditions: [3H]-NMS displacement, CHO cell membranes
T1 construct: expressed in transfected cells
T1 sequence (P20309 whole entry): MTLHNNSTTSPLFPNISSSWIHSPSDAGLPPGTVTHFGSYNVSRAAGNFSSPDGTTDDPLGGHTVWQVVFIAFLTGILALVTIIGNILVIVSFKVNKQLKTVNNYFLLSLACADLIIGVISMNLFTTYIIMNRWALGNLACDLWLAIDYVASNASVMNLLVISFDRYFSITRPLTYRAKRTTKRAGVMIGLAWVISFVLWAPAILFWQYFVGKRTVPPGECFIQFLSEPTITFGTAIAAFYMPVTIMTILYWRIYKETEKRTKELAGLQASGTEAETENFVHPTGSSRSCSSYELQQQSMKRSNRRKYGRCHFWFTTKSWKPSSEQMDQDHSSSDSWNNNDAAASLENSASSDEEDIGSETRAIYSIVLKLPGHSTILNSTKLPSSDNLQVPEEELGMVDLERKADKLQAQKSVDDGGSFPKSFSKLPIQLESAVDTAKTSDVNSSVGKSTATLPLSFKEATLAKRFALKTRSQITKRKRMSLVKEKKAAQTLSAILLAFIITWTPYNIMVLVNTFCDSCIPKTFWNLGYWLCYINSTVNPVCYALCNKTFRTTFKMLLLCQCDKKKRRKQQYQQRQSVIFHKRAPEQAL
Procedure: Cell Culture and Membrane Preparation from Cells Expressing Human M1, M2, M3 and M4 Muscarinic Receptors
CHO cell lines stably expressing cloned human hM1, hM2, hM3 and hM4 muscarinic receptor subtypes, respectively, were grown to near confluency in HAM's F-12 media supplemented with 10% FBS and 250 μg/mL Geneticin. The cells were grown in a 5% CO2, 37° C. incubator and lifted with 2 mM EDTA in dPBS. Cells were collected by 5 minute centrifugation at 650×g, and cell pellets were either stored frozen at −80° C. or membranes were prepared immediately for use. […] The protein concentration of the membrane suspension was determined by the method described in Lowry et al., 1951, Journal of Biochemistry, 193, 265. […]
Radioligand binding assays for cloned human muscarinic receptors were performed in 96-well microtiter plates in a total assay volume of 100 μL. […] Filter plates were rinsed three times with wash buffer (10 mM HEPES) to remove unbound radioactivity. […] The plates were then counted in a PerkinElmer Topcount liquid scintillation counter (PerkinElmer Inc., Wellesley, Mass.). Binding data were analyzed by nonlinear regression analysis with the GraphPad Prism Software package (GraphPad Software, Inc., San Diego, Calif.) using the one-site competition model. […]

Structure (SMILES): COc1cc(NC(=O)CCN2CCC(OC(=O)Nc3ccccc3-c3ccccc3)CC2)c(Cl)cc1CNC[C@H](O)c1ccc(O)c2[nH]c(=O)ccc12 [compound of formula I, biphenyl-2-ylcarbamic acid 1-[2-(2-chloro-4-{[(R)-2-hydroxy-2-(8-hydroxy-2-oxo-1,2-dihydroquinolin-5-yl)ethylamino]methyl}-5-methoxyphenylcarbamoyl)ethyl]piperidin-4-yl ester]
- bronchoprotective effect against MCh-induced bronchoconstriction [1]: dose-dependent bronchoprotective effect
- pKi [2]: > 8.00
